Residue numbers refer to the chain shown, from its start.
Tests used:
Format in all cases: biochemical
[1] = molecular target: T1, hAGT (human O^6-alkylguanine-DNA alkyltransferase) (Homo sapiens, UniProt P16455); test: hAGT labeling kinetics via microplate reader (FP over time); conditions: hAGT vs CLIP
T1 construct: StrepTag-II (N); enterokinase cleavage site (N); His10 (C); made in house; host or cells: E. coli BL21(DE3)-pLysS
T1 sequence (P16455 1-207): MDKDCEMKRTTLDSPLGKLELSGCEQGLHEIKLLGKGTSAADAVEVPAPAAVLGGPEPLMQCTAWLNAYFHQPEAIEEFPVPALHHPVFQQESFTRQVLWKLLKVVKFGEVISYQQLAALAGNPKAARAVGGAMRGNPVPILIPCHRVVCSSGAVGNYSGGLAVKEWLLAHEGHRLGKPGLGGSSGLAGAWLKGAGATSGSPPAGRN
Procedure: (§1) Labeling kinetics of SNAP and CLIP substrates were measured by recording FP over time using a microplate reader in a manner analogous to that of HT7 labeling kinetics described above with the following changes. The fluorescent substrate concentration was fixed to 20 nM, and protein concentrations were varied from 15 to 900 nM. Measurements were performed in SNAP-FP buffer.
(§2) Kinetic data from microplate reader assays were fitted to a simplified kinetic model (eq 13) described by differential eqs 14–16 using DynaFit. The dead time of the measurements and baseline FP value were put in as fixed parameters. Standard deviations (normal distribution verified) and confidence intervals of fitted parameters were estimated with the Monte Carlo method with standard settings (N = 1000, 5% worst fits discarded). In the case of BG, CP, and BC kinetics, the substrate concentration was fitted by DynaFit to rule out quantification errors of the BG, CP, or BC fluorophores. Accurate fitting of the concentration was ensured by including conditions under which protein is limiting and no maximum FP value was reached.

CLIP-tag (CLIP) = molecular target: T2, CLIP-tag (CLIP) (Homo sapiens, UniProt P16455, A121V/A127T/A154D/C150Q/C62A/G131N/G132T/G153S/K125A/K32I/L33F/M134L/M60I/N157P/Q115S/Q116H/R128A/R135D/S151G/S152D/S159L/Y114E); test: CLIP labeling kinetics via microplate reader (FP over time); conditions: CLIP, plate reader, kinetic model 1
T2 construct: made in house; host or cells: E. coli BL21(DE3)-pLysS
T2 sequence (P16455 1-182 K32I/L33F/M60I/C62A/Y114E/Q115S/Q116H/A121V/K125A/A127T/R128A/G131N/G132T/M134L/R135D/C150Q/S151G/S152D/G153S/A154D/N157P/S159L limits assumed): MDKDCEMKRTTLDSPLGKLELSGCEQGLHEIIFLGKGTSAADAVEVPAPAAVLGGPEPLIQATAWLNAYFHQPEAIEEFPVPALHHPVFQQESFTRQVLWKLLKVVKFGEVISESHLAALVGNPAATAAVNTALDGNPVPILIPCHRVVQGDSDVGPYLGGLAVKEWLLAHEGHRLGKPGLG
Procedure: as §1, §2

CLIPf (CLIP^E30R) = molecular target: T3, CLIPf (CLIP^E30R) (Homo sapiens, UniProt P16455, A121V/A127T/A154D/C150Q/C62A/E30R/G131N/G132T/G153S/K125A/K32I/L33F/M134L/M60I/N157P/Q115S/Q116H/R128A/R135D/S151G/S152D/S159L/Y114E); test: CLIPf labeling kinetics via microplate reader (FP over time); conditions: plate reader
T3 construct: made in house; host or cells: E. coli BL21(DE3)-pLysS
T3 sequence (P16455 1-182 E30R/K32I/L33F/M60I/C62A/Y114E/Q115S/Q116H/A121V/K125A/A127T/R128A/G131N/G132T/M134L/R135D/C150Q/S151G/S152D/G153S/A154D/N157P/S159L limits assumed): T2 sequence (P16455 1-182 K32I/L33F/M60I/C62A/Y114E/Q115S/Q116H/A121V/K125A/A127T/R128A/G131N/G132T/M134L/R135D/C150Q/S151G/S152D/G153S/A154D/N157P/S159L limits assumed) with E30R
Procedure: as §1, §2

SNAP-tag (SNAP) = molecular target: T4, SNAP-tag (SNAP) (Homo sapiens, UniProt P16455, A127T/A154D/C150Q/C62A/G131K/G132T/G153L/K125A/K32I/L33F/M134L/N157G/Q115S/Q116H/R128A/R135S/S151G/S152D/S159E); test: SNAP labeling kinetics via microplate reader (FP over time)
T4 construct: made in house; host or cells: E. coli BL21(DE3)-pLysS
T4 sequence (P16455 1-182 K32I/L33F/C62A/Q115S/Q116H/K125A/A127T/R128A/G131K/G132T/M134L/R135S/C150Q/S151G/S152D/G153L/A154D/N157G/S159E limits assumed): T2 sequence (P16455 1-182 K32I/L33F/M60I/C62A/Y114E/Q115S/Q116H/A121V/K125A/A127T/R128A/G131N/G132T/M134L/R135D/C150Q/S151G/S152D/G153S/A154D/N157P/S159L limits assumed) with I60M, E114Y, V121A, N131K, D135S, S153L, P157G, L159E
Procedure: as §1, §2

CN(C)c1ccc2c(-c3cc(C(=O)NCc4ccc(COc5nccc(N)n5)cc4)ccc3C(=O)[O-])c3ccc(=[N+](C)C)cc-3oc2c1 [BC-TMR]
times slower reaction with hAGT than with CLIP [1]: 25000 times | kapp (value ± standard deviation) (CLIP-tag (CLIP)): (1.85 ± 0.01) × 10^4 M^–1 s^–1 | kapp (CLIPf (CLIP^E30R)): (3.37 ± 0.01) × 10^4 M^–1 s^–1 | times slower reaction of SNAP than with BG-TMR (SNAP-tag (SNAP); SNAP cross-reactivity): more than 1000 times | kapp (value ± standard deviation) (SNAP-tag (SNAP); SNAP, plate reader, kinetic model 1): (3.20 ± 0.02) × 10^2 M^–1 s^–1

From article PMC8388125, “Kinetic and Structural Characterization of the Self-Labeling Protein Tags HaloTag7, SNAP-tag, and CLIP-tag” (Biochemistry, 2021)
